Experiments:
[1] = molecular target: PIK3CB (Human) (UniProt P42338); assay: Inhibition of PIK3CB Kinase Activity
[2] = molecular target: PIK3CA (human) (UniProt P42336); assay: Inhibition of PIK3CA Kinase Activity
PIK3CA (human), sequence (P42336 whole entry, looked up): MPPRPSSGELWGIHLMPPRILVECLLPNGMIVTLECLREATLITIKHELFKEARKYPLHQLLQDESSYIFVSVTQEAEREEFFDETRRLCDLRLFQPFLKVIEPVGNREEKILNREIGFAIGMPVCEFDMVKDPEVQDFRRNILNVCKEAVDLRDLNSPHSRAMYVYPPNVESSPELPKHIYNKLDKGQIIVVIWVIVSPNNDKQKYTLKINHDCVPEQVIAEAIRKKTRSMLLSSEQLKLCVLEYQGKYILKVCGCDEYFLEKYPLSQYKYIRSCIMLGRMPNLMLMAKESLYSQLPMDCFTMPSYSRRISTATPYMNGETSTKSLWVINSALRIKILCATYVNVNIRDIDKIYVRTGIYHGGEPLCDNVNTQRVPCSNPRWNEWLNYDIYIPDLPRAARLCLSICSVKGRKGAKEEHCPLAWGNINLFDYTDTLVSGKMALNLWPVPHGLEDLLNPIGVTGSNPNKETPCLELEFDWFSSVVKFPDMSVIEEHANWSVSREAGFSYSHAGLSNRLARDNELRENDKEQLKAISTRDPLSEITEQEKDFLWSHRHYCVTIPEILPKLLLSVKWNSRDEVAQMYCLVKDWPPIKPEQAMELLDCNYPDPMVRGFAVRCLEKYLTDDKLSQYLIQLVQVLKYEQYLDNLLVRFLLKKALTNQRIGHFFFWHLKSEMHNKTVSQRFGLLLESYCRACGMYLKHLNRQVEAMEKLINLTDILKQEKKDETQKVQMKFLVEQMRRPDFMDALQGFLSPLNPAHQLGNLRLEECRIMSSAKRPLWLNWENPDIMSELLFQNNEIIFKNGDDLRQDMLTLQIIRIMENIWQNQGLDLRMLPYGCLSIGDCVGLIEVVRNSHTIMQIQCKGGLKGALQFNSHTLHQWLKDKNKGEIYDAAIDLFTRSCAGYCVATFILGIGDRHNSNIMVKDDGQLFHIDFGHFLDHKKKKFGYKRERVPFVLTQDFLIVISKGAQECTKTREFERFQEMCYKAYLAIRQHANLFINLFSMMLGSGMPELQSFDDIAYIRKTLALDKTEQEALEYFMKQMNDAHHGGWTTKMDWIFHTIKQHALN

PIK3CB (Human), sequence (P42338 whole entry, looked up): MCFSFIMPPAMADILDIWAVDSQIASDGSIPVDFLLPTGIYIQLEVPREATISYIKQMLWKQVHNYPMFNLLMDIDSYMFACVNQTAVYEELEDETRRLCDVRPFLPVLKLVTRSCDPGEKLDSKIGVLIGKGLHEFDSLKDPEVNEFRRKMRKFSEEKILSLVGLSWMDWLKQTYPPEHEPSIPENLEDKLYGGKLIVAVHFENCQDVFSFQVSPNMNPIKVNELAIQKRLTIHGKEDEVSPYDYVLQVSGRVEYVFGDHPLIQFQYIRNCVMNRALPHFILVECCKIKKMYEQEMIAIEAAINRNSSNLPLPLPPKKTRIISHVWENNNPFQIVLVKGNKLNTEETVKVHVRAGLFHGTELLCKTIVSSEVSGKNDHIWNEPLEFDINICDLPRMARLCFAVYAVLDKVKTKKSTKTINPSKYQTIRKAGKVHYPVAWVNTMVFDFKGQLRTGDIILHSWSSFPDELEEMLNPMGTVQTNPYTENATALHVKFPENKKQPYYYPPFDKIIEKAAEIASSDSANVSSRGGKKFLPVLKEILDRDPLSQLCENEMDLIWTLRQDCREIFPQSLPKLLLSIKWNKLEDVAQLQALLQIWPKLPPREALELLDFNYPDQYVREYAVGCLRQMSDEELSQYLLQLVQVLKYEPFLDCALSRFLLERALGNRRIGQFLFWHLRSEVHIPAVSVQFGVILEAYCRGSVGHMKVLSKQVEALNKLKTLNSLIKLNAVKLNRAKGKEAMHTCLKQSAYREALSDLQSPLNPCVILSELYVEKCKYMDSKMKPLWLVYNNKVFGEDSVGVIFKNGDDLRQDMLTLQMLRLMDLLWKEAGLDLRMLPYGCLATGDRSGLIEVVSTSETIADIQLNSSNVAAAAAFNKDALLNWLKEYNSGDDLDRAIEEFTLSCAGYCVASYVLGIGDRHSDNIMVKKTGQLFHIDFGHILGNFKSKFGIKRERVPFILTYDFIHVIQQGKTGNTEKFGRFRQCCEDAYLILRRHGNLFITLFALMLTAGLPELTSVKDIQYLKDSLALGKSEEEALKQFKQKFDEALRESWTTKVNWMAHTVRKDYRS

SMILES	IC50 [1] [µM]	IC50 [2] [µM]
CC(=O)Nc1nc2ccc(-c3ccnc(OCCCN4CCOCC4)n3)cc2s1	11	
CC(=O)Nc1nc2ccc(-c3cnc(Cl)c(F)c3)cc2s1	13.3	
CC(=O)Nc1nc2ccc(-c3cnc(Cl)c(OC4CCOC4)c3)cc2s1 (stereo not drawn)	2.87	0.169
COc1cc(-c2ccc3nc(NC(C)=O)sc3c2)cnc1Br	13.3	
CC(=O)Nc1nc2ccc(-c3cccc(N)c3)nc2s1	13.3	

Second part, the molecule after the results:

IC50 [1] [µM]	IC50 [2] [µM]	SMILES
1.61	2.62	CC(=O)Nc1nc2ccc(-c3ccnc(N4CCC[C@@H]4c4ccccc4)n3)cc2s1
0.777	1.56	CC(=O)Nc1nc2ccc(-c3ccnc(N4CCC[C@@H]4c4ccccc4C)n3)cc2s1
13.3		COc1ccc(COc2nccc(-c3ccc4nc(NC(C)=O)sc4c3)n2)cc1
0.472	0.0441	CC(=O)Nc1nc2ccc(-c3cnc(Cl)c(OC(C)C)c3)cc2s1

From the Kinase Knowledgebase extract (Sharma et al. 2016)
